In brackets after ≈: the same amount, converted by molar mass. Where two headings read alike, the source gives them in different places.
Columns and labels:
[1] = test system: Staphylococcus aureus USA300 LAC; assay: microbe, parasite or virus in culture; assay type: cell-based; details: for MIC: Staphylococcus aureus, MRSA / USA300, 24 h
Experimental: (§1) Antimicrobial testing – Microdilution
(§2) Antimicrobial testing was performed according to CLSI and EUCAST guidelines in microdilution.8-10 Therefore, all tested substances as well as controls were dissolved in water in different concentrations and serially diluted in MHB II (cation adjusted) on the 96-well plate. A logarithmic growing, overnight culture of the respective bacterial strain was used and adjusted to a McFarland corresponding to 1 × 10^8 cfu/ml. Afterwards the bacterial suspension was diluted to 1 ×10^6 cfu/ml and loaded on the 96-well polypropylene plates, resulting in a final bacterial concentration of 5 × 10^5 cfu/ml. After an incubation at 35 ± 1 °C for 18-20 hours (re-controlled after 24 hours) the MIC was determined as the lowest concentration without visible growth as described previously.11 For direct comparison of the tested substances, all results were calculated in mg/ml and mol/ml afterwards. […]
Resistance development study
(§3) Resistance development in S. aureus was determined by passaging bacteria in increasing amounts of vancomycin, FU002 or, as control, fusidic acid. In principle, tubes with twofold dilutions of the compounds in 1 ml Muller Hinton broth were inoculated 1:100 with bacterial suspension. The tubes were then incubated for 24 h at 37 °C under shaking. After each passage, the tube with the highest compound concentration showing bacterial growth was used to inoculate the tubes of the next passage (1:100). The tube with the lowest compound concentration showing no growth was defined as the passage MIC. Passaging was stopped after 8 passages.
(§4) For the validation of possible side effects provoked by the conjugates, the cytotoxic effect of the lead candidate FU002 on human cells was assessed in a colorimetric viability assay. Different human cell types were used including kidney and liver cell lines as well as freshly isolated peripheral blood cells. Cells were seeded into 96-well microtiter plates at 2 x 10^4 cells/well and cultured overnight (18-24 h) in a […]

A. baumannii SC300007 = assay: microbe, parasite or virus in culture; assay type: cell-based
Experimental: as §1, §2
as §3, with “As further control substance, the glycopeptide antibiotic teicoplanin was evaluated. […] Resistance” for “Resistance”
as §4

[2] = test system: K. pneumoniae ATCC 700603; assay: microbe, parasite or virus in culture; assay type: cell-based
Experimental: as §1, §2
as §3, with “As further control substance, the glycopeptide antibiotic teicoplanin was evaluated. […] Resistance” for “Resistance”
as §4

E. coli ATCC 25922 = assay type: cell-based; details: median of at least triplicates on two different plates
Experimental: as §1, §2
(§5) Resistance development in S. aureus was determined by passaging bacteria in increasing amounts of vancomycin, FU002 or, as control, fusidic acid. In principle, tubes with twofold dilutions of the compounds in 1 ml Muller Hinton broth were inoculated 1:100 with bacterial suspension. […]
(§6) For the validation of possible side effects provoked by the conjugates, the cytotoxic effect of the lead candidate FU002 on human cells was assessed in a colorimetric viability assay. […]

[3] = test system: Staphylococcus aureus USA300 LAC (MRSA) infected mice; assay: In vivo efficacy model in infected mice; details: female Balb/c mice, FU002 56.4 mg/kg body weight per day
[4] = test system: Staphylococcus aureus USA300; assay: Broth microdilution on vancomycin-sensitive strain; assay type: cell-based
Experimental: as §1, §2, §5, §6

[5] = test system: human cell lines (blood, liver, kidney); assay: Cytotoxicity, XTT viability assay; assay type: cell-based; details: 64 µg/ml, 24 h incubation, three human cell lines (blood, liver, kidney)
P. aeruginosa ATCC 27853 = assay type: cell-based; details: median of at least triplicates on two different plates
Experimental: as §1, §2
(§7) As further control substance, the glycopeptide antibiotic teicoplanin was evaluated. […] Resistance development in S. aureus was determined by passaging bacteria in increasing amounts of vancomycin, FU002 or, as control, fusidic acid. […]
as §6

[6] = test system: vancomycin-resistant strains (vanA, vanB and vanC); assay type: cell-based; details: all values, vanB and vanC resistance types
Experimental: as §1, §2, §7, §6

Compound | MIC ([1]; read-out: MIC after 8 passages) [µg/mL] | MIC ([1]; read-out: initial MIC) [µg/mL] | MIC (A. baumannii SC300007; Acinetobacter baumannii, SC300007) [µg/mL] | MIC ([2]; Klebsiella pneumoniae, ATCC700603) [µg/mL] | MIC (E. coli ATCC 25922) [µg/mL] | bacterial burden, colony forming units (CFU) in the liver ([3]; day 4 post infection, p < 0.05, Kruskal-Wallis test) | body weight of infected mice ([3]; i.v. infection, doses every 12 hours, start 2 hours p.i.) | activity compared with vancomycin (MIC) [4] | MIC after 8 passages ([1]; MRSA USA300 LAC, 8 passages in increasing compound concentrations, 24 h at 37 °C each) [µg/mL] | initial MIC ([1]; MRSA USA300 LAC, before passaging, Muller Hinton broth, 24 h, 37 °C) [µg/mL] | resistance development ([1]; after eight passages in increasing concentrations) | cytotoxicity [5] | MIC (P. aeruginosa ATCC 27853) [µg/mL] | MIC (minimum inhibitory concentration) [6] | MIC (A. baumannii SC300007; A. baumannii SC300007, median of at least triplicates on two different plates) [µg/mL] | MIC ([2]; K. pneumoniae ATCC 700603, median of at least triplicates on two different plates) [µg/mL]
CN[C@H](CC(C)C)C(=O)N[C@H]1C(=O)N[C@@H](CC(N)=O)C(=O)N[C@H]2C(=O)N[C@H]3C(=O)N[C@H](C(=O)N[C@H](C(=O)O)c4cc(O)cc(O)c4-c4cc3ccc4O)[C@H](O)c3ccc(c(Cl)c3)Oc3cc2cc(c3O[C@@H]2O[C@H](CO)[C@@H](O)[C@H](O)[C@H]2O[C@H]2C[C@](C)(N)[C@H](O)[C@H](C)O2)Oc2ccc(cc2Cl)[C@H]1O [vancomycin] | 4 (≈ 2.76 µM) | 0.5 (≈ 0.345 µM) | ≥ 640 | ≥ 640 | – | – | – | – | – | – | – | – | – | – | – | –
CC(C)C[C@H](C(=O)N[C@H]1C(=O)N[C@@H](CC(N)=O)C(=O)N[C@H]2C(=O)N[C@H]3C(=O)N[C@H](C(=O)N[C@H](C(=O)O)c4cc(O)cc(O)c4-c4cc3ccc4O)[C@H](O)c3ccc(c(Cl)c3)Oc3cc2cc(c3O[C@@H]2O[C@H](CO)[C@@H](O)[C@H](O)[C@H]2O[C@H]2C[C@](C)(N)[C@H](O)[C@H](C)O2)Oc2ccc(cc2Cl)[C@H]1O)N(C)C(=O)C1CCC(CN2C(=O)CC(SC[C@H](NC(=O)[C@H](CCCNC(=N)N)NC(=O)[C@H](CCCNC(=N)N)NC(=O)[C@H](CCCNC(=N)N)NC(=O)[C@H](CCCNC(=N)N)NC(=O)[C@H](CCCNC(=N)N)NC(=O)[C@@H](N)CCCNC(=N)N)C(N)=O)C2=O)CC1 (stereo partly shown) [FU002] | – | – | – | – | ≥ 640 | significant reduction of bacterial burden | No infection‐related body weight loss | at least as active as vancomycin | 4 (≈ 1.47 µM) | 1 | no resistance development was observed | no relevant cytotoxicity | ≥ 640 | below 4 mg L^−1 | ≥ 640 | ≥ 640
